In patent US7846722B2 (priority 2001, dated 2010):

System: Neuro-2A cells
Type: cell-based, mouse
Conditions: not given
In the case of CC1=C(/C=C/C(C)=C/C=C/C(C)=C/C(=O)O)C(C)(C)CCC1 [all trans retinoic acid, All Trans-Retinoic acid], the “BoNT/A SNAP25197-cleavage product (uptake of BoNT/A) after differentiation reagent treatment” value is reported as “increase”.

Target: BoNT/A (Clostridium botulinum, UniProt P0DPI0)
Sequence (P0DPI0 whole entry, looked up): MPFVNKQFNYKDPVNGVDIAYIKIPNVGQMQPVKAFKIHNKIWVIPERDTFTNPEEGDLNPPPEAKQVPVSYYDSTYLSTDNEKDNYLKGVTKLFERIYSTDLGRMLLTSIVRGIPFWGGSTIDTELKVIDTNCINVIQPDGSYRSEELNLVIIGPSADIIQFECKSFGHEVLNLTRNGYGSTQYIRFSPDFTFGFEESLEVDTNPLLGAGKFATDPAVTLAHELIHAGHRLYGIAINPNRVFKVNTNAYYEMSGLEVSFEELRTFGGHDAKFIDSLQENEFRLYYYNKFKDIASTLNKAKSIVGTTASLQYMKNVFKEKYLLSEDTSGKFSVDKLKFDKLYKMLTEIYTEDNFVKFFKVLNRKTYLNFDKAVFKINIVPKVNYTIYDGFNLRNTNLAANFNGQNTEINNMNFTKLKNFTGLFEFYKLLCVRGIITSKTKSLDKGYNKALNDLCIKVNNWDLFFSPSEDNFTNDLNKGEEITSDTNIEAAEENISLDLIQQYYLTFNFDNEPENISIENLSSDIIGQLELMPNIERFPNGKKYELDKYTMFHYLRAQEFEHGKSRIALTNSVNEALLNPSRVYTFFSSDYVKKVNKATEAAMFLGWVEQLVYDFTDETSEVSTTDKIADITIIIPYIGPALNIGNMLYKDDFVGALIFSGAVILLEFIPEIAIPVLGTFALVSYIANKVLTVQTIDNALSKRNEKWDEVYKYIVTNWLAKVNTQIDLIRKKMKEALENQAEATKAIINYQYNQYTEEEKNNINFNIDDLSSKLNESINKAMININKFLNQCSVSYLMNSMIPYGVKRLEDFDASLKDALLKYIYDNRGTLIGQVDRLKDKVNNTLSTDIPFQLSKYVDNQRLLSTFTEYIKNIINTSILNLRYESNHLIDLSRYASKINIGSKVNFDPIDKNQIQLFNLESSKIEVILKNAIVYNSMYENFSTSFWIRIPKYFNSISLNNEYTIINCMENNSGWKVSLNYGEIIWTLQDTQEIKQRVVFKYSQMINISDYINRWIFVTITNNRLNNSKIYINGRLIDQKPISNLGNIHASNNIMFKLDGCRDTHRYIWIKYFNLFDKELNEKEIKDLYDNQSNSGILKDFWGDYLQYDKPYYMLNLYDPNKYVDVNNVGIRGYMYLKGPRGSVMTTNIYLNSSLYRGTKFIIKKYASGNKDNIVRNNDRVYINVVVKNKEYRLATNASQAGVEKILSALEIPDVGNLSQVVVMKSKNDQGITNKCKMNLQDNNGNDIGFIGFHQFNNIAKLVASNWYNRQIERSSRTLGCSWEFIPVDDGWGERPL
Conditions: cited from earlier work
For SNKTRIDEANQRATKXL [Peptide M16X], the “Relative Rate” value is given as 1.20. For SNKTRIDEBNQRATKML [Peptide A9B], the “Relative Rate” value is given as 0.38. In the case of SNKTRIDEANQRATKML [[1-17]], the “Relative Rate” value is listed as 1.00. In the case of SNKTRIDEANQRBTKML [Peptide A13B], the “Relative Rate” value is given as 0.79. In the case of SNKTRIDEANQRABKML [Peptide T14B], the “Relative Rate” value is given as 1.20. In the case of SNKTRIDEANBRATKML [Peptide Q11B], the “Relative Rate” value is listed as 0.25.
